{"source": "PubChem BioAssay AID330", "about": "(DTP/NCI, 2004)", "system": "P388 leukemia ip, CD2F1 mice, survival T/C", "test": "NCI In Vivo Anticancer Drug Screen. Data for tumor model P388 Leukemia (intraperitoneal) in CD2F1 (CDF1) mice", "conditions": "endpoint: median survival time, higher = longer survival", "outline": "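Mice carrying the transplanted tumor received test compound or vehicle. Survival was recorded in each group, and the value is the treated-group measurement divided by that of the vehicle-treated control group.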", "key": {"[1]": {"conditions": "dose: 60.0 mg/kg/injection, schedule: Q01DX005 (ip), vehicle: Klucel (hydroxypropylcellulose) (HPC)"}, "[2]": {"conditions": "dose: 120.0 mg/kg/injection, schedule: Q01DX005 (ip), vehicle: Klucel (hydroxypropylcellulose) (HPC)"}, "[3]": {"conditions": "dose: 60.0 mg/kg/injection, schedule: Q01DX005 (ip), vehicle: saline with Tween-80"}, "[4]": {"conditions": "dose: 100.0 mg/kg/injection, schedule: Q04DX002 (ip), vehicle: saline"}, "[5]": {"conditions": "dose: 200.0 mg/kg/injection, schedule: Q04DX002 (ip), vehicle: saline"}, "[6]": {"conditions": "dose: 400.0 mg/kg/injection, schedule: Q04DX002 (ip), vehicle: saline"}}, "note": "Several values for one entry are separate records, joined by “and”; a condition that tells them apart may be missing. Equal values may be shown once. Inconclusive results and toxic doses are left out."}
{"smiles": "Nc1nc(-c2cc(-c3cccc4ccccc34)nc(N)n2)cc(-c2cccc3ccccc23)n1", "values": [{"measurement": "T/C", "setting": "dose: 60.0 mg/kg/injection, schedule: Q01DX005 (ip), vehicle: suspension in saline", "result": "101 % of control"}, {"measurement": "T/C", "setting": "dose: 120.0 mg/kg/injection, schedule: Q01DX005 (ip), vehicle: suspension in saline", "result": "100 % of control"}, {"measurement": "T/C", "setting": "dose: 240.0 mg/kg/injection, schedule: Q01DX005 (ip), vehicle: suspension in saline", "result": "105 % of control"}]}
{"smiles": "CCC(C)NC1(N(C)C)N=C(N(C)C)N=C(N(C)C)O1", "note": "(centres undefined)", "values": [{"measurement": "T/C", "setting": "dose: 50.0 mg/kg/injection, schedule: Q01DX005 (ip), vehicle: saline", "result": "101 % of control"}, {"measurement": "T/C", "setting": "dose: 100.0 mg/kg/injection, schedule: Q01DX005 (ip), vehicle: saline", "result": "99 % of control"}]}
{"smiles": "CCC(Br)C(=O)SC(C)(C)C", "note": "(centres undefined)", "values": [{"measurement": "T/C", "setting": "dose: 100.0 mg/kg/injection, schedule: Q04DX003 (ip), vehicle: saline with Tween-80", "result": "111 % of control"}, {"measurement": "T/C", "setting": "dose: 200.0 mg/kg/injection, schedule: Q04DX003 (ip), vehicle: saline with Tween-80", "result": "106 % of control"}]}
{"smiles": "COc1ccc(NC(=O)Oc2ccc(C#N)cc2)cc1", "values": [{"measurement": "T/C", "setting": "dose: 7.5 mg/kg/injection, schedule: Q01DX005 (ip), vehicle: Klucel (hydroxypropylcellulose) (HPC)", "result": "108 % of control and 98 % of control"}, {"measurement": "T/C", "setting": "dose: 15.0 mg/kg/injection, schedule: Q01DX005 (ip), vehicle: Klucel (hydroxypropylcellulose) (HPC)", "result": "112 % of control and 98 % of control"}, {"measurement": "T/C", "setting": "dose: 30.0 mg/kg/injection, schedule: Q01DX005 (ip), vehicle: Klucel (hydroxypropylcellulose) (HPC)", "result": "105 % of control and 108 % of control"}, {"measurement": "T/C", "setting": "[1]", "result": "116 % of control and 123 % of control"}, {"measurement": "T/C", "setting": "[2]", "result": "117 % of control"}]}
{"smiles": "COC1=C2CC(C)CC(OC)C(O)C(C)/C=C(\\C)C(OC(N)=O)C(OC)/C=C\\C=C(/C)C(=O)NC(=C(C=NC(C)(C)C)C1=O)C2=O", "note": "(centres undefined)", "values": [{"measurement": "T/C", "setting": "[3]", "result": "124 % of control"}]}
{"smiles": "NC(=S)N=Nc1c(O)n(C2OC(CO)C(O)C(O)C2O)c2ccccc12", "note": "(centres undefined)", "values": [{"measurement": "T/C", "setting": "dose: 32.0 mg/kg/injection, schedule: Q01DX002 (ip), vehicle: saline with Tween-80", "result": "109 % of control and 112 % of control"}, {"measurement": "T/C", "setting": "dose: 64.0 mg/kg/injection, schedule: Q01DX002 (ip), vehicle: saline with Tween-80", "result": "114 % of control and 116 % of control"}, {"measurement": "T/C", "setting": "dose: 128.0 mg/kg/injection, schedule: Q01DX002 (ip), vehicle: saline with Tween-80", "result": "98 % of control and 90 % of control"}]}
{"smiles": "O=NN(CCF)C(=O)NC1CCCCC1", "values": [{"measurement": "T/C", "setting": "dose: 16.5 mg/kg/injection, schedule: Q04DX003 (ip), vehicle: saline with Tween-80", "result": "209 % of control"}, {"measurement": "T/C", "setting": "dose: 25.0 mg/kg/injection, schedule: Q04DX003 (ip), vehicle: saline with Tween-80", "result": "225 % of control"}]}
{"smiles": "COC(=O)C1(c2ccccc2)N=C(c2ccc(C)cc2)ON1c1ccccc1", "note": "(centres undefined)", "values": [{"measurement": "T/C", "setting": "[3]", "result": "107 % of control"}, {"measurement": "T/C", "setting": "dose: 120.0 mg/kg/injection, schedule: Q01DX005 (ip), vehicle: saline with Tween-80", "result": "95 % of control"}, {"measurement": "T/C", "setting": "dose: 240.0 mg/kg/injection, schedule: Q01DX005 (ip), vehicle: saline with Tween-80", "result": "92 % of control"}]}
{"smiles": "CC12CCC(=O)C=C1CCCC2=O", "note": "(centres undefined)", "values": [{"measurement": "T/C", "setting": "dose: 50.0 mg/kg/injection, schedule: Q04DX003 (ip), vehicle: saline", "result": "95 % of control"}, {"measurement": "T/C", "setting": "dose: 100.0 mg/kg/injection, schedule: Q04DX003 (ip), vehicle: saline", "result": "100 % of control"}, {"measurement": "T/C", "setting": "dose: 200.0 mg/kg/injection, schedule: Q04DX003 (ip), vehicle: saline", "result": "90 % of control"}]}
{"smiles": "S=C(N\\N=C/C(/C=C/c1ccccc1)=N\\NC(=S)Nc1ccc(Cl)cc1)Nc1ccc(Cl)cc1", "values": [{"measurement": "T/C", "setting": "dose: 400.0 mg/kg/injection, schedule: Q01DX001 (ip), vehicle: Klucel (hydroxypropylcellulose) (HPC)", "result": "88 % of control"}]}
{"smiles": "O=S(=O)(c1cnccc1N1CCN(CCO)CC1)N1CCCCC1", "values": [{"measurement": "T/C", "setting": "dose: 50.0 mg/kg/injection, schedule: Q01DX009 (ip), vehicle: saline", "result": "101 % of control"}, {"measurement": "T/C", "setting": "dose: 100.0 mg/kg/injection, schedule: Q01DX009 (ip), vehicle: saline", "result": "105 % of control"}]}
{"smiles": "O=C1CC2(C(=O)O1)C1C(=O)OC(=O)C1C1C=CC=NN12", "note": "(centres undefined)", "values": [{"measurement": "T/C", "setting": "dose: 25.0 mg/kg/injection, schedule: Q01DX009 (ip), vehicle: saline with Tween-80", "result": "90 % of control"}, {"measurement": "T/C", "setting": "dose: 50.0 mg/kg/injection, schedule: Q01DX009 (ip), vehicle: saline with Tween-80", "result": "93 % of control"}, {"measurement": "T/C", "setting": "dose: 100.0 mg/kg/injection, schedule: Q01DX009 (ip), vehicle: saline with Tween-80", "result": "93 % of control"}]}
{"smiles": "Clc1ccc(-c2cc(-c3cc(-c4ccc(Cl)c(Cl)c4)n[nH]3)[nH]n2)cc1Cl", "values": [{"measurement": "T/C", "setting": "[1]", "result": "97 % of control"}, {"measurement": "T/C", "setting": "[2]", "result": "86 % of control"}, {"measurement": "T/C", "setting": "dose: 240.0 mg/kg/injection, schedule: Q01DX005 (ip), vehicle: Klucel (hydroxypropylcellulose) (HPC)", "result": "96 % of control"}]}
{"smiles": "O=c1[nH]c2ccccc2c(=O)n1-c1cccs1", "values": [{"measurement": "T/C", "setting": "[4]", "result": "105 % of control"}, {"measurement": "T/C", "setting": "[5]", "result": "105 % of control"}, {"measurement": "T/C", "setting": "[6]", "result": "99 % of control"}]}
{"smiles": "COc1cc(CCNC(C)=O)c(NC=O)cc1OC", "values": [{"measurement": "T/C", "setting": "[4]", "result": "108 % of control"}, {"measurement": "T/C", "setting": "[5]", "result": "105 % of control"}, {"measurement": "T/C", "setting": "[6]", "result": "99 % of control"}]}
{"smiles": "CCCCCCCCCCCC(=O)NCCc1ccc(O)c(O)c1", "values": [{"measurement": "T/C", "setting": "dose: 25.0 mg/kg/injection, schedule: Q04DX003 (ip), vehicle: Klucel (hydroxypropylcellulose) (HPC)", "result": "113 % of control"}, {"measurement": "T/C", "setting": "dose: 50.0 mg/kg/injection, schedule: Q04DX003 (ip), vehicle: Klucel (hydroxypropylcellulose) (HPC)", "result": "115 % of control"}, {"measurement": "T/C", "setting": "dose: 100.0 mg/kg/injection, schedule: Q04DX003 (ip), vehicle: Klucel (hydroxypropylcellulose) (HPC)", "result": "119 % of control and 120 % of control"}, {"measurement": "T/C", "setting": "dose: 200.0 mg/kg/injection, schedule: Q04DX003 (ip), vehicle: Klucel (hydroxypropylcellulose) (HPC)", "result": "113 % of control and 120 % of control"}, {"measurement": "T/C", "setting": "dose: 400.0 mg/kg/injection, schedule: Q04DX003 (ip), vehicle: Klucel (hydroxypropylcellulose) (HPC)", "result": "89 % of control"}]}
